# Results as given in PubChem BioAssay (NCI).
#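 Briefly, cells in 96-well plates were exposed to five compound concentrations for 48 h, and endpoints were estimated by linear interpolation. TGI: concentration producing complete growth inhibition.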
# Columns and labels:
# Experiment in all cases: inhibition of tumour cell growth, NCI panel, 48 h
# OVCAR-8 ovarian = system: OVCAR-8 ovarian
# U251 CNS = system: U251 CNS
# EKVX NSCLC = system: EKVX NSCLC
# K-562 leukemia = system: K-562 leukemia
# RXF 393 renal = system: RXF 393 renal
# M19-MEL melanoma = system: M19-MEL melanoma
# SK-MEL-2 melanoma = system: SK-MEL-2 melanoma
# CCRF-CEM leukemia = system: CCRF-CEM leukemia
# SNB-19 CNS = system: SNB-19 CNS
# MALME-3M melanoma = system: MALME-3M melanoma
# SF-539 CNS = system: SF-539 CNS
# LOX IMVI melanoma = system: LOX IMVI melanoma
# HCT-116 colon = system: HCT-116 colon
# HOP-92 NSCLC = system: HOP-92 NSCLC
# NCI-H23 lung = system: NCI-H23 lung
# SK-OV-3 ovarian = system: SK-OV-3 ovarian
# MDA-MB-231 breast = system: MDA-MB-231 breast
# UO-31 renal = system: UO-31 renal
# NCI-H460 lung = system: NCI-H460 lung
# HOP-18 NSCLC = system: HOP-18 NSCLC
# NCI-H226 lung = system: NCI-H226 lung
# SK-MEL-5 melanoma = system: SK-MEL-5 melanoma
# DMS 114 small cell lung = system: DMS 114 small cell lung
# SW-620 colon = system: SW-620 colon
# SR leukemia = system: SR leukemia
# SN12C renal = system: SN12C renal
# RPMI-8226 leukemia = system: RPMI-8226 leukemia
# HL-60(TB) leukemia = system: HL-60(TB) leukemia
# SF-268 CNS = system: SF-268 CNS
# KM12 colon = system: KM12 colon
# HT29 colon = system: HT29 colon
# 786-0 renal = system: 786-0 renal
# A549 NSCLC = system: A549 NSCLC
# COLO 205 colon = system: COLO 205 colon
# DMS 273 small cell lung = system: DMS 273 small cell lung
# NCI/ADR-RES ovarian = system: NCI/ADR-RES ovarian
# PC-3 prostate = system: PC-3 prostate
# ACHN renal = system: ACHN renal
# SK-MEL-28 melanoma = system: SK-MEL-28 melanoma
# MCF7 breast = system: MCF7 breast
# RXF-631 renal = system: RXF-631 renal
# M14 melanoma = system: M14 melanoma
# OVCAR-3 ovarian = system: OVCAR-3 ovarian
# BT-549 breast = system: BT-549 breast
# OVCAR-4 ovarian = system: OVCAR-4 ovarian
# T-47D breast = system: T-47D breast
# KM20L2 colon = system: KM20L2 colon
# UACC-62 melanoma = system: UACC-62 melanoma
# DU-145 prostate = system: DU-145 prostate
# MDA-N = system: MDA-N
# TK-10 renal = system: TK-10 renal
# LXFL 529 NSCLC = system: LXFL 529 NSCLC
# SF-295 CNS = system: SF-295 CNS
# CAKI-1 renal = system: CAKI-1 renal
# UACC-257 melanoma = system: UACC-257 melanoma
# XF 498 CNS = system: XF 498 CNS
# HS 578T breast = system: HS 578T breast
# IGROV1 ovarian = system: IGROV1 ovarian
# A498 renal = system: A498 renal
# HOP-62 NSCLC = system: HOP-62 NSCLC
# OVCAR-5 ovarian = system: OVCAR-5 ovarian
# HCC-2998 colon = system: HCC-2998 colon
# MDA-MB-435 = system: MDA-MB-435
# HCT-15 colon = system: HCT-15 colon
# SNB-75 CNS = system: SNB-75 CNS
# NCI-H522 lung = system: NCI-H522 lung
# MOLT-4 leukemia = system: MOLT-4 leukemia
smiles,measurement,setting,value
COc1cc(Nc2nc3c(N)cc(C(F)(F)F)cc3nc2-c2ccccc2)cc(OC)c1OC,TGI,OVCAR-8 ovarian,> 100 µM
same,TGI,U251 CNS,> 89.2 µM
same,TGI,EKVX NSCLC,> 100 µM
same,TGI,K-562 leukemia,> 100 µM
same,TGI,RXF 393 renal,36.2 µM
same,TGI,M19-MEL melanoma,> 100 µM
same,TGI,SK-MEL-2 melanoma,> 100 µM
same,TGI,CCRF-CEM leukemia,> 100 µM
same,TGI,SNB-19 CNS,> 91.5 µM
same,TGI,MALME-3M melanoma,75.9 µM
same,TGI,SF-539 CNS,> 74 µM
same,TGI,LOX IMVI melanoma,> 100 µM
same,TGI,HCT-116 colon,> 100 µM
same,TGI,HOP-92 NSCLC,16.7 µM
same,TGI,NCI-H23 lung,> 100 µM
same,TGI,SK-OV-3 ovarian,> 92.2 µM
same,TGI,MDA-MB-231 breast,> 95.5 µM
same,TGI,UO-31 renal,> 100 µM
same,TGI,NCI-H460 lung,> 100 µM
same,TGI,HOP-18 NSCLC,> 81 µM
same,TGI,NCI-H226 lung,> 88.5 µM
same,TGI,SK-MEL-5 melanoma,83 µM
same,TGI,DMS 114 small cell lung,> 100 µM
same,TGI,SW-620 colon,> 100 µM
same,TGI,SR leukemia,> 100 µM
same,TGI,SN12C renal,> 100 µM
same,TGI,RPMI-8226 leukemia,> 100 µM
same,TGI,HL-60(TB) leukemia,> 100 µM
same,TGI,SF-268 CNS,> 100 µM
same,TGI,KM12 colon,> 100 µM
same,TGI,HT29 colon,> 100 µM
same,TGI,786-0 renal,74.4 µM
same,TGI,A549 NSCLC,> 100 µM
same,TGI,COLO 205 colon,> 100 µM
same,TGI,DMS 273 small cell lung,> 100 µM
same,TGI,NCI/ADR-RES ovarian,> 100 µM
same,TGI,PC-3 prostate,> 89.4 µM
same,TGI,ACHN renal,> 100 µM
same,TGI,SK-MEL-28 melanoma,> 100 µM
same,TGI,MCF7 breast,> 100 µM
same,TGI,RXF-631 renal,> 85.2 µM
same,TGI,M14 melanoma,> 100 µM
same,TGI,OVCAR-3 ovarian,> 100 µM
same,TGI,BT-549 breast,> 83.5 µM
same,TGI,OVCAR-4 ovarian,58.8 µM
same,TGI,T-47D breast,> 83 µM
same,TGI,KM20L2 colon,99.9 µM
same,TGI,UACC-62 melanoma,> 92.3 µM
same,TGI,DU-145 prostate,> 100 µM
same,TGI,MDA-N,> 100 µM
same,TGI,TK-10 renal,> 95.4 µM
same,TGI,LXFL 529 NSCLC,> 100 µM
same,TGI,SF-295 CNS,53.3 µM
same,TGI,CAKI-1 renal,> 100 µM
same,TGI,UACC-257 melanoma,> 100 µM
same,TGI,XF 498 CNS,47.9 µM
same,TGI,HS 578T breast,> 83.6 µM
same,TGI,IGROV1 ovarian,> 100 µM
same,TGI,A498 renal,7.36 µM
same,TGI,HOP-62 NSCLC,> 86.1 µM
same,TGI,OVCAR-5 ovarian,> 100 µM
same,TGI,HCC-2998 colon,> 100 µM
same,TGI,MDA-MB-435,> 100 µM
same,TGI,HCT-15 colon,> 100 µM
same,TGI,SNB-75 CNS,53.8 µM
same,TGI,NCI-H522 lung,> 92 µM
same,TGI,MOLT-4 leukemia,> 100 µM
